The text below walks through data of PubChem BioAssay AID686918 (Sanford-Burnham Center for Chemical Genomics, 2013).

Each structure is given as a SMILES string. Active and inactive are the calls of the source.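 The calls were made as follows: active = thrombin counterscreen IC50 at or below 100 µM; inactive = the rest.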

The target of the assay is Prothrombin (Bos taurus) (UniProt P00735). Briefly: bovine thrombin protease inhibition, dose response, counter-screen for Rpn11 inhibitor project, biochemical, fluorescence polarization, SAR validation (AID 686918). Conditions: bovine thrombin cleavage of Ub4-pepOG. On the technique in general: A counterscreen serves to expose hits that act by an unwanted route or on another target.
Prothrombin (Bos taurus), sequence (P00735 whole entry, looked up): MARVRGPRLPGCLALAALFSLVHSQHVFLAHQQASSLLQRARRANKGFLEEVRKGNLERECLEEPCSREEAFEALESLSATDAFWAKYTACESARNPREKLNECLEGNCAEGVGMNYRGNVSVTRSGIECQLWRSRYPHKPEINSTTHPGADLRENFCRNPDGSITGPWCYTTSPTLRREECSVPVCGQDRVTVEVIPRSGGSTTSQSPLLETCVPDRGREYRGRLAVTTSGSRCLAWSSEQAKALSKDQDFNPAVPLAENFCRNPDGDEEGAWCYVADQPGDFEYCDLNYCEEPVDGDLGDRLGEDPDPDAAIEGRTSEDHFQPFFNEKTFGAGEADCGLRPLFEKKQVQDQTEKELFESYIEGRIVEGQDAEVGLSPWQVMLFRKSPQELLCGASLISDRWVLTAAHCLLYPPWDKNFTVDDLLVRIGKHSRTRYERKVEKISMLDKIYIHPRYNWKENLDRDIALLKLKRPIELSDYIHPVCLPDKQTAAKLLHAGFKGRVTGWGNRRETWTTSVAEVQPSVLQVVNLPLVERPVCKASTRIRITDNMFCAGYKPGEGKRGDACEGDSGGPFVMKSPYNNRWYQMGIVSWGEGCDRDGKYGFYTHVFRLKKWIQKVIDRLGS

The IC50 is the concentration needed to halve the response being measured. As to `COc1ccc(C(=O)Sc2cccc3cccnc23)cc1OC`, the IC50 was > 99 µM (inactive). The result for `O=C(Sc1cccc2cccnc12)c1ccc(C(F)(F)F)cc1` reads > 99 µM (inactive); that for `CC(C)C[C@H](NC(=O)c1cnc2c(SSc3cccc4cc(C(=O)N[C@@H](CC(C)C)C(=O)O)cnc34)cccc2c1)C(=O)O`, > 99 µM (inactive). Next, `COC(=O)[C@H](C)NC(=O)c1cnc2c(SSc3cccc4cc(C(=O)N[C@@H](C)C(=O)OC)cnc34)cccc2c1`: > 99 µM (inactive); `N#Cc1cccc(C(=O)Sc2cccc3cccnc23)c1`: > 99 µM (inactive).

Turning to `N#Cc1ccc(C(=O)Sc2cccc3cccnc23)cc1`, the IC50 is > 99 µM (inactive).

For the molecule `O=C(Sc1cccc2cccnc12)c1ccc(F)c(F)c1`, the IC50 is > 99 µM (inactive). Next, `O=C(Sc1cccc2cccnc12)c1ccccc1F`: > 99 µM (inactive). The result for `Cc1ccc(C(=O)Sc2cccc3cccnc23)cc1` reads > 99 µM (inactive); that for `O=C(Sc1cccc2cccnc12)c1cccc2ccccc12`, > 99 µM (inactive); that for `CCCc1ccc(C(=O)Sc2cccc3cccnc23)cc1`, > 99 µM (inactive). On to `COc1ccc(C(=O)Sc2cccc3cccnc23)cc1`, for which the IC50 was > 99 µM (inactive). Consider `COc1ccccc1C(=O)Sc1cccc2cccnc12`, for which the IC50 is > 99 µM (inactive). Next, `O=C(Sc1cccc2cccnc12)c1ccccc1[N+](=O)[O-]`: > 99 µM (inactive); `CC(C)[C@H](NC(=O)c1cnc2c(SSc3cccc4cc(C(=O)N[C@H](C(=O)O)C(C)C)cnc34)cccc2c1)C(=O)O`: > 99 µM (inactive). The result for `COC(=O)[C@H](CC(C)C)NC(=O)c1cnc2c(SSc3cccc4cc(C(=O)N[C@@H](CC(C)C)C(=O)OC)cnc34)cccc2c1` reads > 99 µM (inactive); that for `Cc1ccccc1C(=O)Sc1cccc2cccnc12`, > 99 µM (inactive); that for `CC[C@@H](C)[C@H](NC(=O)c1cnc2c(SSc3cccc4cc(C(=O)N[C@H](C(=O)OC)[C@@H](C)CC)cnc34)cccc2c1)C(=O)OC`, > 99 µM (inactive).

As to `O=C(Sc1cccc2cccnc12)C1CCCCC1`, the IC50 was > 99 µM (inactive). Turning to `O=C(Sc1cccc2cccnc12)c1cccc(Cl)c1`, the IC50 is > 99 µM (inactive). Next, `O=C(Sc1cccc2cccnc12)c1ccc2c(c1)OCO2`: > 99 µM (inactive); `O=C(Sc1cccc2cccnc12)c1cccc(C(F)(F)F)c1`: > 99 µM (inactive); `O=C(O)[C@@H]1CCCN1C(=O)c1cnc2c(SSc3cccc4cc(C(=O)N5CCC[C@H]5C(=O)O)cnc34)cccc2c1`: > 99 µM (inactive).

For the molecule `O=C(O)c1cnc2c(SSc3cccc4cc(C(=O)O)cnc34)cccc2c1`, the IC50 was > 99 µM (inactive).

With `O=C(Sc1cccc2cccnc12)c1ccc([N+](=O)[O-])cc1`, the IC50 was > 99 µM (inactive).

Turning to `COC(=O)[C@H](CO)NC(=O)c1cnc2c(SSc3cccc4cc(C(=O)N[C@@H](CO)C(=O)OC)cnc34)cccc2c1`, the IC50 is > 99 µM (inactive).

On to `COC(=O)[C@H](C)N(C)C(=O)c1cnc2c(SSc3cccc4cc(C(=O)N(C)[C@@H](C)C(=O)OC)cnc34)cccc2c1`, for which the IC50 is > 99 µM (inactive). Regarding `CC(C)Cc1ccc(C(=O)Sc2cccc3cccnc23)cc1`, the IC50 was > 99 µM (inactive).

Take `C[C@@H](C(=O)O)N(C)C(=O)c1cnc2c(SSc3cccc4cc(C(=O)N(C)[C@@H](C)C(=O)O)cnc34)cccc2c1`: the IC50 is > 99 µM (inactive).

Take `CC[C@@H](C)[C@H](NC(=O)c1cnc2c(SSc3cccc4cc(C(=O)N[C@H](C(=O)O)[C@H](C)CC)cnc34)cccc2c1)C(=O)O`: the IC50 is > 99 µM (inactive).

On to `COc1cccc(C(=O)Sc2cccc3cccnc23)c1`, for which the IC50 is > 99 µM (inactive). The result for `COc1ccc(C(=O)Sc2cccc3cccnc23)cc1F` reads > 99 µM (inactive). In the case of `COC(=O)[C@@H]1CCCN1C(=O)c1cnc2c(SSc3cccc4cc(C(=O)N5CCC[C@H]5C(=O)OC)cnc34)cccc2c1`, the IC50 was > 99 µM (inactive). Next, `COC(=O)[C@H](C)NC(=O)c1ccnc2c(SSc3cccc4c(C(=O)N[C@@H](C)C(=O)OC)ccnc34)cccc12`: > 99 µM (inactive); `O=C(Sc1cccc2cccnc12)c1ccc(F)cc1F`: > 99 µM (inactive); `COC(=O)[C@@H](NC(=O)c1cnc2c(SSc3cccc4cc(C(=O)N[C@H](C(=O)OC)C(C)C)cnc34)cccc2c1)C(C)C`: > 99 µM (inactive). The result for `O=C(Sc1cccc2cccnc12)c1ccccc1Cl` reads > 99 µM (inactive); that for `COC(=O)c1cnc2c(SSc3cccc4cc(C(=O)OC)cnc34)cccc2c1`, > 99 µM (inactive).

For the molecule `O=C(Sc1cccc2cccnc12)c1c(Cl)cccc1Cl`, the IC50 is > 99 µM (inactive). Next, `CCOc1ccccc1C(=O)Sc1cccc2cccnc12`: > 99 µM (inactive); `Cc1cccc(C(=O)Sc2cccc3cccnc23)c1`: > 99 µM (inactive); `O=C(Sc1cccc2cccnc12)c1ccccc1Br`: > 99 µM (inactive). The result for `O=C(Sc1cccc2cccnc12)c1ccc(F)cc1` reads > 99 µM (inactive); that for `CC(C)(C)OC(=O)CCNC(=O)c1cnc2c(SSc3cccc4cc(C(=O)NCCC(=O)OC(C)(C)C)cnc34)cccc2c1`, > 99 µM (inactive). Next, `O=C(Sc1cccc2cccnc12)c1ccccc1I`: > 99 µM (inactive). `COC(=O)C[C@H](NC(=O)c1cnc2c(SSc3cccc4cc(C(=O)N[C@@H](CC(=O)OC)C(=O)OC)cnc34)cccc2c1)C(=O)OC`: the IC50 is > 99 µM (inactive). Next, `O=C(Sc1cccc2cccnc12)c1ccccc1`: > 99 µM (inactive); `O=C(Sc1cccc2cccnc12)c1ccccc1OC(F)(F)F`: > 99 µM (inactive).
